{
  "source": "patent US20250332223A1",
  "about": "“GHRH ANTAGONISTS FOR USE IN A METHOD OF TREATING SARCOIDOSIS” (University of Miami, priority 2019, published 2025)",
  "key": {"[1]": {"test_system": "in vitro granuloma model (PBMCs challenged with microparticles)", "assay": "Pro- and anti-apoptotic protein levels in in vitro granuloma model (Example 3)", "assay_type": "cell-based, human", "conditions": "1 μM MIA-602, 48 h", "description": "In vitro granuloma was developed by challenging PBMC with microparticles as previously described (Zhang et al., Sci Rep 2020; 10: 7277). (Zhang et al., Sci Rep 2020; 10: 7277), PBMCs were lysed in lysis buffer (Cell Signaling Technology, Beverly, MA) with protease inhibitor cocktail (Cell Signaling Technology, Beverly, MA) and sonicated three times for 2 seconds each with at least 1-min rest on ice between each 2-s pulse. Samples were centrifuged at 10,000×g for 5 min at 4° C. and the supernatant was collected. Protein concentration was determined by BCA protein assay kit from Cell Signaling Technology. The methodology is further described in .Zhang et al., Sci Rep 2020; 10: 7277. Thirty micrograms of total protein were mixed in a reducing sample buffer and used for mitochondrial apoptosis assay per the kit instruction. The assay was performed using a Bio-Rad kit (171-WAR3CK). The ability of a peptide of the disclosure, MIA-602, to influence respiration and apoptosis in granuloma cells was examined. The specific processes of apoptosis and mitochondrial dynamics in granuloma have not been fully elucidated. To test if MIA-602 had pro- or anti-apoptotic effects, the protein levels of pro-(active caspase-3) and anti-apoptotic factors (survivin, Bcl-xL/Bak dimer, and Mcl-1/Bak dimer) were measured in an in vitro granuloma model. […] Media were removed 48 h after treatment."}, "[2]": {"test_system": "mouse pulmonary granulomatous model", "assay": "Mouse pulmonary granulomatous model, H&E and IHC scoring of lung (Example 4)", "assay_type": "in vivo, C57B1/6 mice", "description": "The detail of the methodology used for confocal microscopy is discussed in Zhang et al., Front Immunol 2019; 10: 2888. To summarize, mice were killed on day 14, and the left lungs were harvested. Lungs were filled with 10% buffered formalin and fixed in formalin for at least 72 h before IHC staining. H&E staining was used to determine inflammatory pathology.\nFor immunohistochemistry, 5-μm paraffin sections were processed by deparaffinization and rehydration followed by endogenous peroxidase blocking (1% H2O2 in methanol for 20 minutes) and antigen retrieval (boiled in 10 mM citrate buffer for 30 minutes). Tissue sections were blocked with 2% goat or horse serum (Vector Laboratories) and incubated with antibody CD68 (Proteintech, Cat #25747-1-AP), PD-1 (Cell Signaling, cat #84651), PD-L1 (Proteintech, Cat #17952-1-AP), CD30 (Lsbio, cat #LS-c162069) CD3 (Cell Signaling, cat #99940), iNOS (Invitrogen, cat #PAI-036), or Nitrotyrosine (Novus, NBP2-54606) over night at 4° C., washed with TBST five times, then exposed to secondary antibodies (Vector Laboratories, cat #PI-2000). Immunoreactivity was detected using the ABC Elite kit (Vector Laboratories). DAB was used as final chromogen and hematoxylin as the nuclear counterstain. Negative controls for all antibodies were made by replacing the primary antibody with non-immunogen IgG.\nLung inflammation was scored using the three fields with the highest infiltrate's intensity at 100× power magnification as previously described (Zhang et al., Front Immunol 2019; 10: 2888). The area of inflammation was measured and averaged for the three examined high-power fields.\nA mouse pulmonary granulomatous model was established for studying type I IFN pathways after exposure to M. abscessus cell wall. The model is applicable for pulmonary sarcoidosis studies due to its characteristics of noninfectious lung granulomatous model. C57B1/6 mice were used to develop the model (Zhang et al., Front Immunol 2019; 10: 2888).\nMice were treated with 5 μg of a peptide of the disclosure, MIA-602, per day via intraperitoneal injection. After two weeks, the mice were sacrificed, and lung inflammation was graded by a lung pathologist. Lung samples were stained with H&E, CD68, PD1, PD-L1, and CD30, and scored based on percentage of cells expressing each marker."}, "sarcoidosis mice model": {"test_system": "sarcoidosis mice model", "assay": "Flow cytometry of lung single cells in sarcoidosis mice model (Example 5)", "assay_type": "in vivo", "conditions": "MIA-602 5 μg, two weeks", "description": "Mice were sacrificed on day 14, and the left lungs were harvested for pathology after perfusing the right ventricle with 10 ml of PBS.\nThe upper half of left lung tissue (without trachea, main bronchus and branches) was removed and rinsed by PBS to clean off blood. The tissue was minced and dispersed with a scissors to increase total surface area. To develop single cell suspension, the rubber end of a 5 ml plastic syringe was used to mesh cells through a 100 μm cell strainer with continuous rinse using ice-cold RPMI 1640. Cell suspension was again meshed through a 70 μm cell strainer and rinsed thoroughly with 3 ml of washing buffer containing DNAse followed by 15 ml of DNAse-free washing buffer. The sample was centrifuged at 286×g and 18° C. for 5 min, and the supernatant was discarded (Posel et al. J Vis Exp 2016: 53658).\nThe cells (10^6 cells/ml) were resuspended in 100 μl protein blocking solution with 5 μl fluorescent conjugated antibodies, CD8 (Biolegend Cat #100714, CD45 (Biolegend Cat #103130), CD68 (Biolegend Cat #137004), PD-1 (Biolegend Cat #135219), PD-L1 (Biolegend Cat #124308), CD4 (Biolegend Cat #100510), CD11b (Biolegend Cat #101243), CD11c (Biolegend Cat #117318), F4/80 (Biolegend Cat #123146), or IFNg (Biolegend Cat #505836). Samples were analyzed on a BD LSR II flow cytometer using BD FACSDiva software, and data analysis was performed using Flowjo software (TreeStar, Ashland, OR). Cell populations were identified using sequential gating strategy; the expression of activation markers was presented as median fluorescence intensity. Lung immune cells were classified based on FC marker expression as previously described (Misharin et al., Am J Respir Cell Mol Biol 2013; 49: 503-510).\nMice were grouped as control, challenged with microparticles and treated with saline, challenged and treated with MIA-602 (5 μg), and challenged and treated with methyl prednisolone (100 μg). After two weeks, lungs were harvested from all groups, and lung single cells were generated for flow cytometry analysis."}},
  "note": "“Also recorded” adds a separate entry of the source.",
  "data": [
    {"substance": "[PhAc-Ada^0-Tyr^1, D-Arg^2, Fpa5^6, Ala^8, Har^9, Tyr(Me)^10, His^11, Orn^12, Abu^15, His^20, Orn^21, Nle^27, D-Arg^28, Har^29]hGH-RH(1-29)NH2 [MIA-602]", "values": [
      {"measurement": "survivin levels", "setting": "[1]; FIG. 3A", "value": "no statistical difference between groups"},
      {"measurement": "active caspase 3 level", "setting": "[1]; FIG. 3D", "value": "further increased"},
      {"measurement": "level of Mcl-1/Bak dimer", "setting": "[1]; reduced in untreated granuloma, FIG. 3B", "value": "restored"},
      {"measurement": "BclxL/Bak Dimer levels", "setting": "[1]; vs granuloma treated with saline, FIG. 3C", "value": "increased"},
      {"measurement": "lung inflammation score", "setting": "[2]; 5 μg MIA-602 per day intraperitoneal, two weeks, vs granuloma group, H&E", "value": "lower inflammation scores; also recorded: almost normalized"},
      {"measurement": "CD30 cells in lung", "setting": "[2]; 5 μg MIA-602 per day intraperitoneal, two weeks, IHC", "value": "nonsignificantly reduced"},
      {"measurement": "percentage of CD68+ cells in the lung", "setting": "[2]; 5 μg MIA-602 per day intraperitoneal, two weeks, IHC, changes not statistically significant", "value": "decreased"},
      {"measurement": "PD-1+ cells in the lung", "setting": "[2]; 5 μg MIA-602 per day intraperitoneal, two weeks, IHC, same pattern as CD68+ (increased in granuloma, decreased with MIA-602, not significant)", "value": "This pattern was seen"},
      {"measurement": "inflammatory cell numbers in lung tissue", "setting": "[2]; summary of animal model study", "value": "reduced inflammatory cell numbers significantly"},
      {"measurement": "population of CD45+CD68 cells", "setting": "sarcoidosis mice model; FIG. 6A", "value": "significantly reduced"},
      {"measurement": "percentage of CD45+CD68+ cells that expressed PD-1", "setting": "sarcoidosis mice model; FIG. 6B", "value": "significantly increased"},
      {"measurement": "population of CD45+CD68+PD-L1 cells", "setting": "sarcoidosis mice model; FIG. 6C", "value": "a higher percentage was detected"}
    ]}
  ]
}
